Measured values from patent US6825176B2, “E2 displacement assay for identifying inhibitors of HPV” (Boehringer Ingelheim (Canada) Ltd., priority 2002, dated 2004).

Assays:
[1] = target: T1, transactivation domain of HPV11 E2 (TAD) (Human papillomavirus 11, UniProt P04015); test: HPV E2 transactivation domain (TAD) ligand displacement assay; assay type: binding
T1 construct: HPV11 E2 amino acids 2* -215 (*Met-1 removed); made in house; host or cells: E. coli BL21 (DE3)pLysS, plasmid pET23a(+)
From the text: This assay measures the binding of a radiolabeled compound (“probe”) to the transactivation domain of HPV11 E2 (TAD). The protein binds to Ni-coated Flash plates, and the measured signal being proportional to the concentration of bound probe. If a test compound binds to the TAD, it will displace the probe, which will result in a lower signal.
(§1) HPV-11 TAD: HPV11 E2 amino acids 2* -215 (*Met-1 removed) with an amino terminal epitope tag derived from the T7 phage gene 10 protein and a C-terminal His tag (SEQ ID NO.2). Total MW is 27 kDa.
25 mM MOPS, pH 7.0; 100 mM NaCl; 1 mM DTT; 0.0025% Tween-20. The pH was verified before adding DTT and Tween, and was adjusted where necessary. […]
TAD was diluted to 300 nM in assay buffer and used 20 μL […] dilution per well. […] This has a measurable effect on signal: background but little effect on z′ or measured inhibition (J.-H. Zhang, et al., 1999, J. Biomolecular Screening v4(2), 67-73). […]
The assay was performed in 96-well FlashPlates (PE/NEN). […] Plates were then sealed with TopCount-compatible sealing film, shaken briefly, incubated at room temperature, then counted on the TopCount after 3 hrs and again at 20 hrs.
The assay was run as described in Example 6. For each inhibitor concentration, the percent inhibition observed was calculated and the resulting inhibition curve was fit to a logistic using SAS. […]

[2] = target: T1, transactivation domain of HPV11 E2 (TAD); test: isothermal titration calorimetry of probe binding to the TAD; conditions: isothermal titration calorimetry with its non-tritiated homolog
Method: Radiolabeled probe: The tritium labeled probe 1j binds to the TAD with a Kd of 40 nM, as determined by isothermal titration calorimetry with its non-tritiated homolog.
as §1

T1 sequence (P04015 2-215): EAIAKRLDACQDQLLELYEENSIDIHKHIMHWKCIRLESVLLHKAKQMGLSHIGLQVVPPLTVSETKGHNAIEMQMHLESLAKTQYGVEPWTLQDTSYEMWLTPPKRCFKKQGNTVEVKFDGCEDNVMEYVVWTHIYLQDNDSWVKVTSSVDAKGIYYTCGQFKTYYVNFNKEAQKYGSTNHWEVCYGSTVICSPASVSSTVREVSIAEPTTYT

Row | SMILES | IC50 ([1]; counting at 20 hours, 50 nM TAD, 25 nM probe, FIG. 5) [µM] | IC50 ([1]; standard inhibitor, racemic mixture) [µM] | Kd [2] [nM]
1 | O=C(Nc1ccc2c(c1)OCO2)C1C(c2ccc(Cl)cc2)OC2(C(=O)c3ccccc3C2=O)C1C(=O)O (racemic) [Compound 3h] | 4 ± 0.6 | ~10 | –
2 | CC(=O)NCc1ccc(N2C(=O)[C@H]3[C@@H](C2=O)[C@@]2(O[C@H]3c3ccc(Br)c(Br)c3)C(=O)c3cc(C)sc3C2=O)cc1 [Compound 1j] | – | – | 40
